Assay results taken from patent publication EP4740947A1, “PHARMACEUTICAL COMBINATION OF EGFR KINASE INHIBITOR AND C-MET KINASE INHIBITOR FOR TREATING TUMOR DISEASES” (Jiangsu AoSaiKang Pharmaceutical Co., Ltd., priority 2023, dated 2025).

Legend:
NCI-H1975-HGF = test: Efficacy study in xenograft model established with engineered cell line NCI-H1975-HGF in immunodeficient mice; type: in vivo, B-NDG mice; conditions: for NCI-H1975 HGF tumor volume (mm^3): mean ± standard error; for TGI (%) / ΔT/ΔC (%): Day 15 vs vehicle
Protocol: The efficacy of the test drugs in a xenograft model established with the engineered cell line NCI-H1975-HGF in immunodeficient mice was verified.
Table 1. Cell information
B-NDG mice, female, age: 8 weeks, weight: 18-22 g, purchased from Biocytogen.
• Vehicle: 20% solutol/80% 100 mM sodium acetate buffer pH 5.5; • ASK-MET: hydrochloride of the compound of Formula (II), prepared with 20% solutol/80% 100 mM sodium acetate buffer pH 5.5, concentration: 0.2 mg/mL; • ASK-EGFR: compound of Formula (I), prepared with 0.5% sodium carboxymethyl cellulose solution (0.5%CMC-Na), concentration: 2 mg/mL. • Solutol: polyethylene glycol-15 hydroxystearate; • 100 mM sodium acetate buffer pH 5.5; • 20% solutol/80% 100 mM sodium acetate buffer pH 5.5 means that the volume ratio of solutol to 100 mM sodium acetate buffer pH 5.5 in the drug solution was 20:80, the same below.
1) NCI-H1975-HGF was resuscitated and cultured in vitro to obtain 1.5*10^7 cells. 2) 15 8-10-week-old immunodeficient mice were adaptively raised for 1 week, and weighed. Table 2. Inoculation information
4) After inoculation, the tumor volume and weight were measured twice a week. When the average tumor volume reached about 100 mm^3, the animals were randomly divided into 4 groups according to the tumor volume and weight, each group having 3 animals. The animals were immediately administered after grouping. The day of administration was regarded as day 0. Table 3. Grouping and administration information
After inoculation and before grouping, when the tumor was visible, the tumor volume of the test animals was measured once a week. After grouping, the tumor volume of animals in the experiment was measured twice a week. The tumor volume was measured by a two-way measurement method. The major and minor diameter of the tumor were measured by vernier caliper, and then the tumor volume was calculated by the formula TV = 1/2 × a × b^2, where a is the major diameter of the tumor and b is the minor diameter of the tumor.
At the end of the experiment, the following analysis methods were used for data analysis (Table 4). Table 4. Data analysis methods
For an experiment having two groups, T-Test analysis method is used; and for comparison of three or more groups, One-Way ANOVA method is used for analysis. For the potential synergistic effect, Two-Way ANOVA is used. There is a significant difference when p value is less than 0.05.

[1] = Body weight change and tolerance of tumor-bearing mice in the LD1-0025-200662 PDX model; type: in vivo; conditions: for Rate of weight change (%) Day 21: Day 21 vs Day 0
Protocol: Immunodeficient mice were subcutaneously inoculated with LD1-0025-200662 tumor tissue, and observed continuously till tumor formation. When the tumor volume reached about 1000 mm^3, the tumor tissue was peeled off and cut into tumor tissue with a size of about 3 mm × 3 mm × 3 mm (about 50-90 mg), and inoculated subcutaneously in NU/NU mice. The inoculated mice were observed and the growth of tumor was monitored. When the average tumor volume of tumor-bearing mice reached 193.40 mm^3, the mice were randomly divided into groups, administered and observed. The tumor volume and weight of all tumor-bearing mice were measured before grouping, and the tumor-bearing mice were randomly grouped according to the measured tumor volume. According to the principle of random block design, the mice were first divided into blocks according to the tumor volume, and then the mice in each block were randomly assigned to each treatment group. Table 9. Administration and treatment
During the whole experiment, the use and observation of test animals were carried out in accordance with the relevant regulations of Guide for the Care and Use of Laboratory Animals of AAALAC. After the test animals were inoculated with the tumor tissue, they were observed every day and the disease attack and death were recorded. During the routine experiment, all the test animals were monitored and recorded for behavior, food intake, water intake, weight change, hair luster and other abnormal conditions.
5.6 The weight of tumor-bearing mice was measured twice a week, and the change rate of weight gain of mice after administration was calculated: RCBW(%) = (BWi - BW0) / BW0 × 100, where BWi was the average weight at a certain measurement after administration, and BW0 was the average weight at the first administration.

[2] = ASK-EGFR 20 mg/kg p.o. QD×15 (G4)
[3] = ASK-EGFR 20 mg/kg p.o. QD×21 (G2)
[4] = ASK-MET 2 mg/kg p.o. QD×15 (G2)
[5] = ASK-MET 1 mg/kg p.o. QD×(D0-D7) (G3)
[6] = ASK-MET 3 mg/kg p.o. QD×(D0-D7) (G4)

## C=CC(=O)Nc1cc(Nc2ncc(Cl)c(Nc3ccc4ccccc4c3)n2)c(OC)cc1N(C)CCN(C)C [ASK-EGFR, N-((5-((5-chloro-4-((naphthalen-2-yl)amino))pyrimidin-2-yl)amino)-2-((N-methyl-N-dimethylaminoethyl)amino)-4-methoxyphenyl) acrylamide]
NCI-H1975-HGF; Day 0, ASK-EGFR 20 mg/kg p.o. QD×15 (G4)
  NCI-H1975 HGF tumor volume (mm^3): 94.47 ±9.54 mm^3
NCI-H1975-HGF; Day 2, ASK-EGFR 20 mg/kg p.o. QD×15 (G4)
  NCI-H1975 HGF tumor volume (mm^3): 154.47 ±24.23 mm^3
NCI-H1975-HGF; Day 5, ASK-EGFR 20 mg/kg p.o. QD×15 (G4)
  NCI-H1975 HGF tumor volume (mm^3): 201.41 ±24.69 mm^3
NCI-H1975-HGF; Day 8, ASK-EGFR 20 mg/kg p.o. QD×15 (G4)
  NCI-H1975 HGF tumor volume (mm^3): 357.90 ±31.91 mm^3
NCI-H1975-HGF; Day 12, ASK-EGFR 20 mg/kg p.o. QD×15 (G4)
  NCI-H1975 HGF tumor volume (mm^3): 440.56 ±16.92 mm^3
NCI-H1975-HGF; Day 15, ASK-EGFR 20 mg/kg p.o. QD×15 (G4)
  NCI-H1975 HGF tumor volume (mm^3): 589.86±36.92 mm^3
NCI-H1975-HGF; [2]
  TGI (%): 58.01%
  ΔT/ΔC (%): 41.99%
[1]; [3]
  Average weight (g) (Mean ± SEM) Day 0: 23.24 ± 0.47 g
  Average weight (g) (Mean ± SEM) Day 21: 24.75 ± 0.64 g
  Rate of weight change (%) Day 21: 6.45±1.28%

## CC(C)(O)CN1CCC(COc2cnc(-c3cccc(Cn4c(=O)ccn5c6cc(C#N)ccc6nc45)c3)nc2)CC1 [ASK-MET]
NCI-H1975-HGF; Day 0, ASK-MET 2 mg/kg p.o. QD×15 (G2)
  NCI-H1975 HGF tumor volume (mm^3): 96.28 ±7.10 mm^3
NCI-H1975-HGF; Day 2, ASK-MET 2 mg/kg p.o. QD×15 (G2)
  NCI-H1975 HGF tumor volume (mm^3): 147.46 ±23.06 mm^3
NCI-H1975-HGF; Day 5, ASK-MET 2 mg/kg p.o. QD×15 (G2)
  NCI-H1975 HGF tumor volume (mm^3): 274.61 ±85.69 mm^3
NCI-H1975-HGF; Day 8, ASK-MET 2 mg/kg p.o. QD×15 (G2)
  NCI-H1975 HGF tumor volume (mm^3): 434.60 ±55.60 mm^3
NCI-H1975-HGF; Day 12, ASK-MET 2 mg/kg p.o. QD×15 (G2)
  NCI-H1975 HGF tumor volume (mm^3): 658.86 ±111.99 mm^3
NCI-H1975-HGF; Day 15, ASK-MET 2 mg/kg p.o. QD×15 (G2)
  NCI-H1975 HGF tumor volume (mm^3): 940.03±159.86 mm^3
NCI-H1975-HGF; [4]
  TGI (%): 28.48%
  ΔT/ΔC (%): 71.52%
[1]; [5]
  Average weight (g) (Mean ± SEM) Day 0: 24.08 ± 0.53 g
  Average weight (g) (Mean ± SEM) Day 21: 25.24 ± 0.50 g
  Rate of weight change (%) Day 21: 4.88±0.71%
[1]; [6]
  Average weight (g) (Mean ± SEM) Day 0: 24.02 ± 0.37 g
  Average weight (g) (Mean ± SEM) Day 21: 25.03 ± 0.45 g
  Rate of weight change (%) Day 21: 4.19±1.08%
